Assay results as given in the supplement of paper PMC10307832.

Assays:
Experiment in all cases: relative viability (nuclei count vs DMSO), 5 days (fraction); higher = more cells survive
ALW-II-49-7 + OSI-027 = compound: Cc1ccc(C(=O)Nc2cccc(C(F)(F)F)c2)cc1Nc1cncc(C(N)=O)c1 [ALW-II-49-7] + COc1cccc2cc(-c3nc([C@H]4CC[C@H](C(=O)O)CC4)n4ncnc(N)c34)[nH]c12 [OSI-027] (partner 0.5 µM)
Method in brief: (§1)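 Five library-drug doses in √10 steps were combined with a fixed anchor-drug dose, or a single drug was given alone, by pin tool to lung cancer cell lines in 1536-well plates the day after seeding. Nuclei were stained and counted after 5 days. Relative viability is the nuclei count in treated wells over that in vehicle wells, taken as the median of duplicate plates.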

ALW-II-49-7 + Pemetrexed = compound: Cc1ccc(C(=O)Nc2cccc(C(F)(F)F)c2)cc1Nc1cncc(C(N)=O)c1 [ALW-II-49-7] + Nc1nc2[nH]cc(CCc3ccc(C(=O)N[C@@H](CCC(=O)O)C(=O)O)cc3)c2c(=O)[nH]1 [Pemetrexed] (partner 0.2 µM)
Method in brief: as §1

Dasatinib + Pemetrexed = compound: Cc1nc(Nc2ncc(C(=O)Nc3c(C)cccc3Cl)s2)cc(N2CCN(CCO)CC2)n1 [Dasatinib] + Nc1nc2[nH]cc(CCc3ccc(C(=O)N[C@@H](CCC(=O)O)C(=O)O)cc3)c2c(=O)[nH]1 [Pemetrexed] (partner 0.2 µM)
Method in brief: as §1

Dasatinib + Tozasertib = compound: Cc1nc(Nc2ncc(C(=O)Nc3c(C)cccc3Cl)s2)cc(N2CCN(CCO)CC2)n1 [Dasatinib] + Cc1cc(Nc2cc(N3CCN(C)CC3)nc(Sc3ccc(NC(=O)C4CC4)cc3)n2)n[nH]1 [Tozasertib] (partner 0.1 µM)
Method in brief: as §1

Cell Line: UMC-11
- relative viability (ALW-II-49-7 + OSI-027; first compound 0.08 µM): 0.499
- relative viability (ALW-II-49-7 + OSI-027; first compound 0.253 µM): 0.457
- relative viability (ALW-II-49-7 + OSI-027; first compound 0.8 µM): 0.487
- relative viability (ALW-II-49-7 + OSI-027; first compound 2.53 µM): 0.434
- relative viability (ALW-II-49-7 + OSI-027; first compound 8 µM): 0.485
- relative viability (ALW-II-49-7 + Pemetrexed; first compound 0.08 µM): 0.856
- relative viability (ALW-II-49-7 + Pemetrexed; first compound 0.253 µM): 0.79
- relative viability (ALW-II-49-7 + Pemetrexed; first compound 0.8 µM): 0.76
- relative viability (ALW-II-49-7 + Pemetrexed; first compound 2.53 µM): 0.803
- relative viability (ALW-II-49-7 + Pemetrexed; first compound 8 µM): 0.705
- relative viability (Dasatinib + Pemetrexed; first compound 0.005 µM): 0.736
- relative viability (Dasatinib + Pemetrexed; first compound 0.01581 µM): 0.656
- relative viability (Dasatinib + Pemetrexed; first compound 0.05 µM): 0.593
- relative viability (Dasatinib + Pemetrexed; first compound 0.1581 µM): 0.469
- relative viability (Dasatinib + Pemetrexed; first compound 0.5 µM): 0.391
- relative viability (Dasatinib + Tozasertib; first compound 0.005 µM): 0.196
- relative viability (Dasatinib + Tozasertib; first compound 0.01581 µM): 0.203
- relative viability (Dasatinib + Tozasertib; first compound 0.05 µM): 0.193
- relative viability (Dasatinib + Tozasertib; first compound 0.1581 µM): 0.184
- relative viability (Dasatinib + Tozasertib; first compound 0.5 µM): 0.172
